One molecule from patent US20090011424A1, “Cancer-suppressing agents” (Tokyo Medical and Dental University, priority 2005, published 2009) can be followed below.

The subject of this test is NR1I2 gene. The test can be described thus: RT-PCR of NR1I2 messenger RNA in 8 neuroblastoma cell lines cultured with 5-aza-dCyd. In kind it is cell-based, human. The note with it: 8 neuroblastoma cell lines lacking NR1I2 mRNA; 1 μM for 5 days. From the text:
Cell lines used were human-derived neuroblastoma cells SK-N-KS, SK-N-AS, SK-N-SH, SK-N-DZ, SH-SY5Y, MP-N-TS, MP-N-MS, KP-N-RT, KP-N-SIFA, KP-N-SILA, KP-N-TK, KP-N-YS, SMS-KCN, SMS-KAN, SJ-N-CG, NB-1, CHP134, IMR32, and GOTO (Saito-Ohara F, et al. Cancer Res., 63, 1876, 2003), which were derived from […] surgically excised samples. In addition, in order to obtain a material subjected to inhibition of DNA methylation, 5-aza-deoxycytidine (5-aza-dCyd) serving a DNA methyltransferase inhibitor was added to each cell at a concentration of 1 μM for 5 days during culture.
Under general culture conditions, 8 neuroblastoma cell lines lacking the expression of messenger RNA of NR1I2 gene were cultured with the addition of 5-aza-deoxycytidine (5-aza-dCyd) serving as a DNA methyltransferase inhibitor at a concentration of 1 μM for 5 days. The expression levels of messenger RNA of NR1I2 gene in the cells were compared with each other by RT-PCR (FIG. 4). As a control for the expression level obtained by RT-PCR, GAPDH was used.

On to `Nc1ncn([C@H]2C[C@H](O)[C@@H](CO)O2)c(=O)n1` [5-aza-dCyd, 5-aza-deoxycytidine], for which the “expression of messenger RNA of NR1I2 gene” value was “expression of messenger RNA of NR1I2 genes was observed”.
